Key:
non-glyc-HS2ST WT = biological target: T1, non-glyc-HS2ST WT (Gallus gallus, UniProt Q76KB1); assay: Inhibition assay of the reaction between HS2ST and completely de-O-sulfated N-sulfated heparin ([35S]PAPS); type: biochemical, chicken; settings: for IC50: p-nitrophenol-terminated hexasaccharides, substrate CDNS heparin 1 µg, [35S]PAPS, 37 °C, 1 h, n = 2 or 3
T1 construct: made in house; host or cells: E. coli Origami B (DE3)
T1 sequence (Q76KB1 69-356 limits assumed): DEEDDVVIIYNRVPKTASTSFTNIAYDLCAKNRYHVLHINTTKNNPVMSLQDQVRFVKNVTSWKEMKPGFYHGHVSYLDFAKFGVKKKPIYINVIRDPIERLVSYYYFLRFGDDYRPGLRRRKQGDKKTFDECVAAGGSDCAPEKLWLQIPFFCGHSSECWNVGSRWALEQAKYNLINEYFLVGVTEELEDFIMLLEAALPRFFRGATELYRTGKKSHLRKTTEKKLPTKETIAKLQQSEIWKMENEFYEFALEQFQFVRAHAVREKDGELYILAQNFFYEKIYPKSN
Protocol: Inhibition assays were thus performed with non-glyc-HS2ST and all compounds except for 1, the enzymatic substrate. […] Compound 5 appeared to inhibit at least as well as the product of the reaction (2); however, the IC50 was not reached even at the maximum substrate concentration (1 mM) for either 2 or 5. The addition of a single sulfate moiety enhanced the potency of the glycan as an inhibitor by ~10-fold (compare 3 and 4). The presence of both 2- and 3-O-sulfate moieties in the hexasaccharide (4) enhanced its inhibitory potential by approximately 100-fold relative to 5. These in vitro inhibition assays indicate that downstream products of the HS biosynthetic pathway could interfere with HS2ST catalysis in vivo.
The same glycan sequences were synthesized[62] for the inhibition assay as were used for the binding studies (Supplementary Table 1), except these terminated in p-nitrophenol rather than the PEG4-Biotin linker. The reaction mixture contained Tris pH 7.5 50 mM, 0.3 µg non-glyc-HS2ST WT, 0.08 nmol ^35S-labeled 3′-phosphoadenosine 5′-phosphosulfate ([^35S] PAPS) (3 × 10^4 cpm), completely de-O-sulfated N-sulfated heparin (CDNS heparin) 1 µg, and either compound 2, 3, 4 (0, 1, 2, 4, 8, and 16 µg) or 5 (2, 20, 60, and 160 µg) in a total volume of 0.1 ml. After incubation at 37 °C for 1 h, the reaction was quenched by adding 1 mL of 0.01% Triton X-100 buffer at pH 5.0 containing 150 mM NaCl, 50 mM NaOAc, 3 M urea and 1 mM ethylenediaminetetraacetic acid (EDTA). The samples were loaded on a small DEAE column (200 µl in size). The column was then washed five times with the same buffer, each time 1 ml. The column was further washed five times with 0.25 M NaCl in 0.001% Triton X-100 buffer each time 1 ml. The column was eluted with 1 ml of 1 M NaCl in 0.001% Triton X-100 buffer. The ^35S cpm of the eluted samples were tested the by a scintillation counter.

[1] = biological target: T2, non-glyc-HS2ST (non-glycosylated chicken HS2ST), WT (Gallus gallus, UniProt Q76KB1); assay: BLI equilibrium binding, non-glyc-HS2ST WT; settings: BLI saturation binding curves, biotin-PEG4-linked hexasaccharide on sensor, n = 3, ± standard error of fit; — = response too weak to fit
T2 construct: made in house; host or cells: E. coli Origami B (DE3)
T2 sequence (Q76KB1 69-356 limits assumed): T1 sequence (Q76KB1 69-356 limits assumed)
From the text: HS-protein binding studies often utilize biologically-derived oligosaccharides of heterogeneous length and sulfation[34],[35]; however, the synthesis of oligosaccharides with defined length and specific sulfation patterns has recently become possible. We employed biolayer interferometry (BLI) to determine equilibrium surface binding constants (KD) for HS2ST with synthetic HS hexasaccharides (Fig. 1 and Supplementary Table 1). The HS compounds were attached to the BLI biosensor surface to conserve sample and to ensure a significant signal upon protein binding. The HS compounds contained a biotinylated PEG4 linker at the reducing terminus, enhancing the likelihood of a consistent presentation of the linear glycan on the sensor surface, in contrast to immobilizations via intra-chain modifications.
Binding constants were collected for two isoforms of the enzyme; a glycosylated human variant (glyc-HS2ST) expressed in mammalian cell lines, and a highly homologous (96% identity) non-glycosylated chicken isoform expressed in E. coli (non-glyc-HS2ST). […] Thus, the enhanced ligand affinity seen in HS2ST was unexpected and may relate to the specific position of the glycosylation site (N108)[41].
The chicken HS2ST-Maltose Binding Protein (MBP) fusion protein was expressed and purified according to previous studies. The fusion protein was transformed into E. coli Origami B (DE3) cells, cultured at 37 °C until OD600 reached 0.5, then induced with isopropyl-β-D-thiogalactopyranoside and allowed to grow overnight at 20 °C. Cells were sonicated, followed by a two-step purification procedure. Whole-cell supernatant was passed through an amylose column with Tris buffer (25 mM Tris, 500 mM NaCl, pH 7.5). An elution buffer consisted of Tris Buffer with 40 mM Maltose. The amylose column eluent was concentrated and loaded on a Superdex 200 Increase 10/300 GL with PBS buffer (10 mM sodium phosphate, 150 mM NaCl, pH 7.8) to separate trimeric protein from aggregate and independent MBP (Supplementary Fig. 4). All reported mutations formed homotrimeric complexes according to the SEC profiles, including the negative control (NC = R189A/R80E/R184E). Protein concentration was assessed via UV at 280 nm (MW of trimer ~210 KDa, extinction coefficient ~119,000 M^−1 cm^−1 according to ExPASy ProtParam webtool[56]). The trimeric protein preparation was adjusted to 5% glycerol and stored at −20 °C until use. Additional non-glyc-HS2ST constructs were created with the Q5® Mutagenesis kit (New England Biolabs Inc.; cat. # E0554S) and sequenced at the Georgia Genomics Facility at the University of Georgia.
The Octet® RED96 system (FortéBio Inc.) was employed to detect the affinity of the enzymes for specific HS targets. Due to the small size of the glycan and the deep HS2ST binding cavity, the glycan and protein were treated as ligand and analyte, respectively. Varyingly sulfated HS fragments conjugated to biotin linkers were purchased from Glycan Therapeutics Inc. with purities greater than 93% according to HPLC (sequences located in Supplementary Table 1). The glycans were immobilized onto streptavidin (SA) labeled biosensors (FortéBio; cat. #18–5019) at 0.5 µg/mL. Experiments were performed at 25 °C in PBS Buffer (10 mM sodium phosphate, 150 mM NaCl, pH 7.8) with a final concentration of 1X Pall Kinetics buffer (FortéBio Inc; cat. #18–1092). Fresh biosensors and protein samples were used for each measurement (no regeneration step). […]

Row | Enhancement of inhibitory potential relative to 5 (non-glyc-HS2ST WT; 4 relative to 5) | Enhancement of inhibitory potency by addition of a single sulfate moiety (compare 3 and 4) (non-glyc-HS2ST WT; 4 versus 3) | Kd [1] | IC50 (non-glyc-HS2ST WT) | Substance
1 | approximately 100 fold | ~ 10 fold | 0.013 ± 0.003 µM | – | GlcNS6S-GlcA-GlcNS3S6S-IdoA2S-GlcNS6S-GlcA~ [Compound 4]
2 | – | – | 0.072 ± 0.008 µM | > 1000 µM | GlcNS6S-GlcA-GlcNS6S-GlcA-GlcNS6S-GlcA~ [Compound 5]
3 | – | – | 0.042 ± 0.005 µM | – | GlcNS6S-GlcA-GlcNS6S-IdoA2S-GlcNS6S-GlcA~ [Compound 3]
4 | – | – | > 0.5 µM | > 1000 µM | GlcNS-GlcA-GlcNS-IdoA2S-GlcNS-GlcA~ [Compound 2]

Source: PMC6081452, “Downstream Products are Potent Inhibitors of the Heparan Sulfate 2-O-Sulfotransferase” (Scientific Reports, 2018)
